From paper PMC6542280 (Bioorganic & medicinal chemistry letters, 2019)

Biological target: T1, Nutrient-deprivation autophagy factor-1 (NAF-1, miner1) (Homo sapiens, UniProt Q8N5K1)
T1 sequence (Q8N5K1 57-135 limits assumed): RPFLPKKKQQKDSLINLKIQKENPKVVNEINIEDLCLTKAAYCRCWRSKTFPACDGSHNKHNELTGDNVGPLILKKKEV
Experiment: scintillation proximity assay, [3H]rosiglitazone displacement
Type: binding

IC50: 29.8 µM
Substance: NL-1
